Each block holds one molecule with its values, some of them ahead of it. Active and inactive are the calls of the source. The calls are words filed in the database; no cut-off is given here.
Assays:
[1] = target: T1, Cathepsin G (Homo sapiens) (UniProt P08311); assay: Inhibitory activity against Cathepsin G (CatG) at 86 uM concentration
T1 sequence (whole entry): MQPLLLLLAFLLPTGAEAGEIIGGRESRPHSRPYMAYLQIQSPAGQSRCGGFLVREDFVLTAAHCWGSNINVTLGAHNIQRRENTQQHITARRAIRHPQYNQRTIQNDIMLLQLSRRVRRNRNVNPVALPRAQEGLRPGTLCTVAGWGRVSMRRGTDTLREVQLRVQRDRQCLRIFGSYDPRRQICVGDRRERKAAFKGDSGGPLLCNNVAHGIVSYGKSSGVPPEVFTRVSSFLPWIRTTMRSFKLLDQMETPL

[2] = target: T2, Neutrophil elastase (Homo sapiens) (UniProt P08246); assay: Inhibitory activity against Human Leukocyte Elastase (HLE) at 86 uM concentration; NI = no inhibition
T2 sequence (whole entry): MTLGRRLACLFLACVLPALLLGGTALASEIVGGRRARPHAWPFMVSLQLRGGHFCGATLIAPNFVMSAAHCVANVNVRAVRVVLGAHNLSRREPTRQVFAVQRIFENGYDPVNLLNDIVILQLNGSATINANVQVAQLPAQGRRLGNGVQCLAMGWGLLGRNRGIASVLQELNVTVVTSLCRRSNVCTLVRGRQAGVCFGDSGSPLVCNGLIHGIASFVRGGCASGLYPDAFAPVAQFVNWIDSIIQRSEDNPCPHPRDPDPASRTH

[3] = target: T3, Chymotrypsin-like elastase family member 2A (Sus scrofa) (UniProt P08419); assay: Inhibitory activity against Porcine Pancreatic Elastase (PPE) at 86 uM concentration; NI = no inhibition
T3 sequence (whole entry): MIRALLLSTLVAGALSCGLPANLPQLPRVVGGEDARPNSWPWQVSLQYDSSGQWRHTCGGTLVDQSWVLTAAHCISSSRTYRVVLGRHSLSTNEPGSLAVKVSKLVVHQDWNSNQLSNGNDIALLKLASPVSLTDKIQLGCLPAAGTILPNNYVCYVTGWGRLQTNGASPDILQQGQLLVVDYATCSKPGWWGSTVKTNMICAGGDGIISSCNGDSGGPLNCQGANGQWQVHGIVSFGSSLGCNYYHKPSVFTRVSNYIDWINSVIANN

Neutrophil elastase [4] = target: T4, Neutrophil elastase (Homo sapiens, UniProt P08246); assay: In vitro inhibition of human leukocyte elastase.
T4 sequence (P08246 whole entry): T2 sequence (whole entry)

Neutrophil elastase [5] = target: T4, Neutrophil elastase; assay: HLE-inhibitor (Human Leukocyte Elastase) dissociation constant determined by using Dixon Plot
Cathepsin G [6] = target: T5, Cathepsin G (Homo sapiens, UniProt P08311); assay: Compound was tested for the enzyme inhibitory activity against Cathepsin G; NI = no inhibition
T5 sequence (P08311 whole entry): T1 sequence (whole entry)

Neutrophil elastase [7] = target: T4, Neutrophil elastase; assay: Compound was tested for the enzyme inhibitory activity against Human Leukocyte elastase
Cathepsin G [8] = target: T5, Cathepsin G; assay: Compound was tested for the enzyme inhibitory activity against Cathepsin G (CatG); NI = no inhibition
[9] = target: T2, Neutrophil elastase (Homo sapiens); assay: Inhibitory activity against Human Leukocyte Elastase (HLE) at 30 uM concentration
[10] = target: T3, Chymotrypsin-like elastase family member 2A (Sus scrofa); assay: Inhibitory activity against Porcine Pancreatic Elastase (PPE) at 30 uM concentration
[11] = target: T1, Cathepsin G (Homo sapiens); assay: Inhibitory activity against Cathepsin G (CatG) at 30 uM concentration; NI = no inhibition
[12] = target: Chymotrypsinogen A (Bos taurus) (UniProt P00766); assay: Inhibitory activity against Chymotrypsinogen at 30 uM concentration
[13] = target: T1, Cathepsin G (Homo sapiens); assay: Inhibitory activity against Cathepsin G (CatG) at 62 uM concentration
[14] = target: T2, Neutrophil elastase (Homo sapiens); assay: Inhibitory activity against Human Leukocyte Elastase (HLE) at 62 uM concentration
Neutrophil elastase [15] = target: T4, Neutrophil elastase; assay: Compound was tested for the enzyme inhibitory activity against Human Leukocyte Elastase (HLE) at 62 uM concentration
[16] = target: T3, Chymotrypsin-like elastase family member 2A (Sus scrofa); assay: Inhibitory activity against Porcine Pancreatic Elastase (PPE) at 62 uM concentration; NI = no inhibition
[17] = target: T2, Neutrophil elastase (Homo sapiens); assay: Inhibitory activity against Human Leukocyte Elastase (HLE) at 59 uM concentration
[18] = target: T3, Chymotrypsin-like elastase family member 2A (Sus scrofa); assay: Inhibitory activity against Porcine Pancreatic Elastase (PPE) at 59 uM concentration; NI = no inhibition
[19] = target: Chymotrypsinogen A (Bos taurus) (UniProt P00766); assay: Inhibitory activity against Chymotrypsinogen at 62 uM concentration; NI = no inhibition; conditions: Sus scrofa
[20] = target: T3, Chymotrypsin-like elastase family member 2A (Sus scrofa); assay: Inhibitory activity against Porcine Pancreatic Elastase (PPE) at 62 uM concentration
[21] = target: T1, Cathepsin G (Homo sapiens); assay: Inhibitory activity against Cathepsin G (CatG) at 70 uM concentration
[22] = target: T3, Chymotrypsin-like elastase family member 2A (Sus scrofa); assay: Inhibitory activity against Porcine Pancreatic Elastase (PPE) at 70 uM concentration; NI = no inhibition
[23] = target: Chymotrypsinogen A (Bos taurus) (UniProt P00766); assay: Inhibitory activity against Chymotrypsinogen at 70 uM concentration; NI = no inhibition; conditions: Sus scrofa
[24] = target: T2, Neutrophil elastase (Homo sapiens); assay: Inhibitory activity against Human Leukocyte Elastase (HLE) at 70 uM concentration; NI = no inhibition
Cathepsin G [25] = target: T5, Cathepsin G; assay: Inhibition of Cathepsin G (CatG)

Structure (SMILES): O=C(O)c1cc(O)c2c(c1)C(=O)c1cccc(O)c1C2=O
inhibition [1]: 22%
inhibition [2]: inactive
inhibition [3]: inactive

Structure (SMILES): CCCCOC(=O)Oc1cccc2c1C(=O)c1c(OC(=O)OCCCC)cccc1C2=O
IC50 (Neutrophil elastase [4]): 12 µM
Ki (Neutrophil elastase [5]): 7.5 µM

Structure (SMILES): CCCCCc1ccc2c(c1O)C(=O)c1c(O)cccc1C2=O
IC50 (Neutrophil elastase [4]): 3.9 µM

Structure (SMILES): CCCCc1ccc2c(c1O)C(=O)c1c(O)cccc1C2=O
IC50 (Neutrophil elastase [4]): 6.4 µM

Structure (SMILES): CCCCCCc1ccc2c(c1OC(=O)OCCCC)C(=O)c1c(OC(=O)OCCCC)cccc1C2=O
IC50 (Neutrophil elastase [4]): 2.1 µM
Ki (Neutrophil elastase [5]): 0.43 µM

Structure (SMILES): COc1cc(OC)c2c(c1)C(=O)c1cc(C)cc(OC)c1C2=O
inhibition [9]: 16%
inhibition [10]: 4%
inhibition [11]: inactive
inhibition [12]: 6%

Structure (SMILES): CCCOc1cc(O)c2c(c1)C(=O)c1cc(C)cc(O)c1C2=O
inhibition [13]: 35%
inhibition [14]: 100%
IC50 (Neutrophil elastase [15]): 5.9 µM
inhibition [16]: inactive

Structure (SMILES): CC(=O)Oc1cccc2c1C(=O)c1c(OC(C)=O)cc(CBr)cc1C2=O
inhibition [17]: 33%
inhibition [18]: inactive

Structure (SMILES): O=C1c2cc(O)cc(O)c2C(=O)c2c(O)cc(CO)cc21
inhibition [13]: 22%
inhibition [14]: 26%
inhibition [19]: inactive
inhibition [20]: 4%

Structure (SMILES): CC(=O)Oc1cccc2c1C(=O)c1c(OC(C)=O)cc(C(=O)O)cc1C2=O
inhibition [21]: 5%
inhibition [22]: inactive
inhibition [23]: inactive
inhibition [24]: inactive

More lines, now with the values ahead:

IC50 (Cathepsin G [6]): Not Active
IC50 (Neutrophil elastase [7]): 6.6 µM
Structure (SMILES): O=C1c2ccccc2C(=O)c2c1ccc(Cc1ccccc1)c2O

IC50 (Cathepsin G [8]): No inhibition
Structure (SMILES): COc1cccc2c1C(=O)c1c(ccc(CC(C)C)c1OC(C)=O)C2=O

IC50 (Cathepsin G [6]): Not Active
IC50 (Neutrophil elastase [7]): > 60 µM
Structure (SMILES): COc1c(C)ccc2c1C(=O)c1ccccc1C2=O

IC50 (Neutrophil elastase [4]): 39 µM
IC50 (Cathepsin G [8]): Not Active
Structure (SMILES): Cc1ccc2c(c1)C(=O)c1ccccc1C2=O [TECTOQUINONE]

IC50 (Neutrophil elastase [4]): 4.2 µM
Structure (SMILES): CCCc1ccc2c(c1O)C(=O)c1c(O)cccc1C2=O

IC50 (Neutrophil elastase [4]): 19 µM
IC50 (Cathepsin G [8]): Not Active
Structure (SMILES): COc1cccc2c1C(=O)c1c(ccc(C)c1O)C2=O

IC50 (Neutrophil elastase [4]): 9.9 µM
Structure (SMILES): Cc1ccc2c(c1O)C(=O)c1c(O)cccc1C2=O

IC50 (Neutrophil elastase [4]): 5.9 µM
Structure (SMILES): CCCCc1ccc2c(c1O)C(=O)c1c(OC)cccc1C2=O

IC50 (Neutrophil elastase [4]): 8 µM
Structure (SMILES): CC(C)Cc1ccc2c(c1O)C(=O)c1c(O)cccc1C2=O

IC50 (Neutrophil elastase [4]): 8.7 µM
IC50 (Cathepsin G [25]): > 60 µM
Structure (SMILES): CCCc1ccc2c(c1O)C(=O)c1c(OC)cccc1C2=O

IC50 (Neutrophil elastase [4]): 6.7 µM
IC50 (Cathepsin G [8]): No inhibition
Structure (SMILES): COc1cccc2c1C(=O)c1c(ccc(Cc3ccccc3)c1O)C2=O

Source: ChEMBL document CHEMBL1125455, “Novel anthraquinone inhibitors of human leukocyte elastase and cathepsin G” (J Med Chem, 1992)
